pEC50, pIC50: −log10 of the molar value.
Experiments:
[1] = target: SARS-CoV-2 Papain-like (PLpro) protease (Severe acute respiratory syndrome coronavirus 2, UniProt P0DTD1); experiment: SARS-CoV-2 Papain-like (PLpro) protease biochemical enzyme inhibition assay (ubiquitin-fluorophore substrate, Ub-R110); settings: Ub-R110 substrate; run in duplicate; read-out: PLpro IC50
SARS-CoV-2 replicon = experiment: microbe, parasite or virus in culture; format: cell-based; settings: Severe acute respiratory syndrome coronavirus 2, Huh-7

Row | SMILES | pIC50 [1] | pEC50 (SARS-CoV-2 replicon)
1 | N#CCNC(=O)C(=O)NCc1ccc(C#N)cc1C(=O)NC1(c2ccc(F)c3ccccc23)CC1 [Example 55] | > 7.00 | 5.00 to 6.00
2 | Cc1cc(C)nc(C#CCNC(=O)C(=O)NCc2ccccc2C(=O)NC2(c3ccc4ccccc4c3)CC2)n1 [Example 178] | > 7.00 | > 6.00
3 | O=C(NCC#Cc1nccs1)C(=O)NCc1ccccc1C(=O)NC1(c2cc(-c3ccn(C(F)F)n3)cc(F)c2F)CC1 [Example 296] | > 7.00 | > 6.00
4 | CC(C)[C@@H](C#Cc1nccs1)NC(=O)C(=O)NCc1ccccc1C(=O)NC1(c2ccc3nn(C)cc3c2)CC1 [Example 97] | 6.00 to 7.00 | > 6.00
5 | COc1nccnc1C#CCNC(=O)C(=O)NCc1ccccc1C(=O)NC1(c2ccc3ccccc3c2)CC1 [Example 195] | > 7.00 | > 6.00
6 | C#CCNC(=O)C(=O)NCc1ccccc1C(=O)NC1(c2cc(Cl)cc(-c3nnc(C)o3)c2)CC1 [Example 484] | > 7.00 | > 6.00
7 | Cn1cc(-c2cc(C3(NC(=O)c4ccccc4CNC(=O)C(=O)NCC#N)CC3)ccc2F)cn1 [Example 231] | > 7.00 | < 5.00
8 | C=CC(=O)NNC(=O)C(=O)NCc1ccccc1C(=O)N[C@H](C)c1cccc2ccccc12 [Example 22] | 6.00 to 7.00 | < 5.00
9 | O=C(/C=C/CNC(=O)C(=O)NCc1ccccc1C(=O)NC1(c2cccc3ccccc23)CC1)NC1(C(F)(F)F)CC1 [Example 575] | 6.00 to 7.00 | < 5.00
10 | O=C(NCC#Cc1ncccc1Cl)C(=O)NCc1ccccc1C(=O)NC1(c2cc(F)cc(-c3cnn(C4CC4)c3)c2)CC1 [Example 263] | > 7.00 | > 6.00
11 | C[C@@H](C#Cc1ncc(F)cn1)NC(=O)C(=O)NCc1ccccc1C(=O)NC1(c2cc(F)cc(-c3cnn(C4CC4)c3)c2)CC1 [Example 144] | > 7.00 | > 6.00
12 | COc1cccnc1C#CCNC(=O)C(=O)NCc1ccccc1C(=O)NC1(c2cc(F)cc(-c3cn(C)nc3C)c2)CC1 [Example 258] | > 7.00 | > 6.00
13 | O=C(NCC#Cc1ncccc1C(F)(F)F)C(=O)NCc1ccccc1C(=O)NC1(c2ccc3ccccc3c2)CC1 [Example 191] | > 7.00 | > 6.00
14 | N#CCNC(=O)C(=O)NCc1ccccc1C(=O)NC1(c2cc(Cl)cc(Br)c2)CC1 [Example 455] | 6.00 to 7.00 | < 5.00
15 | N#CN1CCC(F)(C(=O)NCc2ccccc2C(=O)NC2(c3cc(Br)cc4ccccc34)CC2)C1 (centres unmarked) [Example 329] | > 7.00 | > 6.00
16 | COC(=O)/C=C/CNC(=O)C(=O)NCc1ccccc1C(=O)N[C@H](C)c1cc(-c2cnn(C(F)F)c2)cc(C(F)(F)F)c1 [Example 462] | > 7.00 | > 6.00
17 | N#C/C=C/CNC(=O)C(=O)NCc1ccccc1C(=O)NC1(c2cc(Br)cc3ccccc23)CC1 [Example 152] | > 7.00 | > 6.00
18 | O=C(NC/C=C/C(=O)N1CCCCO1)C(=O)NCc1ccccc1C(=O)NC1(c2cccc3ccccc23)CC1 [Example 566] | 6.00 to 7.00 | 5.00 to 6.00
19 | C#CCNC(=O)C(=O)NCc1ccccc1C(=O)NC1(c2ccc(F)c(-c3cccs3)c2)CC1 [Example 223] | > 7.00 | > 6.00
20 | N#CCNC(=O)C(=O)NCc1ccccc1C(=O)NC1(c2cccc(-c3cccs3)c2Cl)CC1 [Example 382] | > 7.00 | 5.00 to 6.00

Row | SMILES | pIC50 [1] | pEC50 (SARS-CoV-2 replicon)
21 | N#CCNC(=O)C(=O)NCc1ccccc1C(=O)NC1(c2cc(-c3cnn(C4CC4)c3)c3ccccc3c2)CC1 [Example 307] | > 7.00 | 5.00 to 6.00
22 | CNN(C)C(=O)/C=C/CNC(=O)C(=O)NCc1ccccc1C(=O)NC1(c2cccc3ccccc23)CC1 [Example 559] | 6.00 to 7.00 | 5.00 to 6.00
23 | Cc1nn(C)c(C)c1-c1cc(F)c(F)c(C2(NC(=O)c3ccccc3CNC(=O)C(=O)NCC#Cc3nccs3)CC2)c1 [Example 297] | > 7.00 | > 6.00
24 | CC(C)OC(=O)/C=C/CNC(=O)C(=O)NCc1ccccc1C(=O)NC1(c2cccc3ccccc23)CC1 [Example 538] | 6.00 to 7.00 | 5.00 to 6.00
25 | Cn1cc2cc(C3(NC(=O)c4ccccc4CNC(=O)C(=O)NCC#Cc4ccc(S(C)(=O)=O)cc4F)CC3)ccc2n1 [Example 147] | > 7.00 | > 6.00
26 | CN1CCC(n2cc(-c3cc(F)cc(C4(NC(=O)c5ccccc5CNC(=O)C(=O)NCC#Cc5nccs5)CC4)c3)cn2)CC1 [Example 255] | > 7.00 | > 6.00
27 | O=C(NCC#Cc1ncccn1)C(=O)NCc1ccccc1C(=O)NC1(c2ccc3ccccc3c2)CC1 [Example 168] | > 7.00 | > 6.00
28 | Cc1nn(C)c(C)c1-c1cc(F)cc(C2(NC(=O)c3ccccc3CNC(=O)C(=O)NCC#Cc3nccs3)CC2)c1 [Example 490] | > 7.00 | > 6.00
29 | N#CCNC(=O)C(=O)NCc1ccccc1C(=O)NC1(c2cc(-c3cnn(C(F)F)c3)cc3ccccc23)CC1 [Example 285] | > 7.00 | > 6.00
30 | O=C(NC/C=C/c1ncccn1)C(=O)NCc1ccccc1C(=O)NC1(c2ccc3ccccc3c2)CC1 [Example 582] | > 7.00 | > 6.00
31 | N#CCNC(=O)C(=O)NCc1ccccc1C(=O)NC1(c2cc(F)cc(-c3cnn(C4CC4)c3)c2F)CC1 [Example 312] | > 7.00 | 5.00 to 6.00
32 | N#CCNC(=O)C(=O)NCc1ccccc1C(=O)NC1(c2cc(-c3ccn(C4CC4)n3)cc(F)c2F)CC1 [Example 306] | > 7.00 | > 6.00
33 | COc1cc(C2(NC(=O)c3ccccc3CNC(=O)C(=O)N[C@@H](C)C#Cc3ccc(C#N)cc3OC(F)(F)F)CC2)cc2cn(C3CC3)nc12 [Example 216] | > 7.00 | > 6.00
34 | N#CCNC(=O)C(=O)NCc1ccccc1C(=O)NC1(c2cc(-c3cccs3)cc(-c3cccs3)c2)CC1 [Example 452] | > 7.00 | 5.00 to 6.00
35 | C#CCNC(=O)C(=O)NCc1ccccc1C(=O)NC1(c2cc(-c3cnn(C4CC4)c3)cc(Cl)c2F)CC1 [Example 302] | > 7.00 | > 6.00
36 | C[C@@H](C#Cc1ccccc1C#N)NC(=O)C(=O)NCc1ccccc1C(=O)NC1(c2ccc3nn(C)cc3c2)CC1 [Example 99] | > 7.00 | > 6.00
37 | O=C(C#CCNC(=O)C(=O)NCc1ccccc1C(=O)NC1(c2cccc3ccccc23)CC1)NC1CC(F)(F)C1 [Example 519] | > 7.00 | > 6.00
38 | N#CCNC(=O)C(=O)NCc1ccccc1C(=O)NC1(c2cccc(Br)c2)CC1 [Example 545] | 6.00 to 7.00 | < 5.00
39 | O=C(/C=C/CNC(=O)C(=O)NCc1ccccc1C(=O)NC1(c2cccc3ccccc23)CC1)Nc1ccccn1 [Example 569] | 6.00 to 7.00 | > 6.00
40 | N#CCNC(=O)C(=O)NCc1ccccc1C(=O)NC1(c2cc(-c3ccn(C(F)F)n3)cc3ccccc23)CC1 [Example 293] | > 7.00 | > 6.00

Row | SMILES | pIC50 [1] | pEC50 (SARS-CoV-2 replicon)
41 | C[C@@H](NC(=O)c1ccccc1CNC(=O)C(=O)NCC#N)c1cc(-c2ccoc2)cc(C(F)(F)F)c1 [Example 464] | > 7.00 | 5.00 to 6.00
42 | N#CN1CCC[C@H]1CNC(=O)C(=O)NCc1ccccc1C(=O)NC1(c2cccc3ccccc23)CC1 [Example 504] | > 7.00 | > 6.00
43 | N#Cc1cc(-c2cnn(C3CC3)c2)c(F)c(C2(NC(=O)c3ccccc3CNC(=O)C(=O)NCC#Cc3nccs3)CC2)c1 [Example 301] | > 7.00 | > 6.00
44 | C#CCNC(=O)C(=O)NCc1ccccc1C(=O)NC1(c2cc(-c3ccccc3)cc(C(F)(F)F)c2)CC1 [Example 469] | > 7.00 | 5.00 to 6.00
45 | N#CCNC(=O)C(=O)NCc1ccccc1C(=O)NC1(c2cc(Cl)cc(-c3cnn(C4CC4)c3)c2)CC1 [Example 454] | > 7.00 | 5.00 to 6.00
46 | N#CCNC(=O)C(=O)NCc1ccccc1C(=O)NC1(c2ccc3c4c(cccc24)CC3)CC1 [Example 439] | > 7.00 | > 6.00
47 | COc1cc(C2(NC(=O)c3ccccc3CNC(=O)C(=O)NC/C=C/c3ncccn3)CC2)cc2cn(C3CC3)nc12 [Example 577] | > 7.00 | > 6.00
48 | N#CN1CCC(C(=O)NCc2ccccc2C(=O)NC2(c3cccc4ccccc34)CC2)C1 (centres unmarked) [Example 115] | > 7.00 | > 6.00
49 | O=C(NCC#Cc1nccs1)C(=O)NCc1ccccc1C(=O)NC1(c2cc(F)cc(-n3cc(C4CC4)cn3)c2)CC1 [Example 489] | > 7.00 | > 6.00
50 | C[C@@H](C#Cc1nccs1)NC(=O)C(=O)NCc1ccccc1C(=O)NC1(c2ccc3ccccc3c2)CC1 [Example 183] | > 7.00 | > 6.00
51 | N#CCNC(=O)C(=O)NCc1ccccc1C(=O)NC1(c2cc(-c3cnn(C4CC4)c3)cc(C(F)(F)F)c2)CC1 [Example 470] | > 7.00 | 5.00 to 6.00
52 | C[C@@H](C#Cc1ncccc1Cl)NC(=O)C(=O)NCc1ccccc1C(=O)NC1(c2ccc3nn(C)cc3c2)CC1 [Example 272] | > 7.00 | > 6.00
53 | N#CCNC(=O)C(=O)NCc1ccccc1C(=O)NC1(c2cc(F)cc(-c3cccs3)c2)CC1 [Example 220] | > 7.00 | 5.00 to 6.00
54 | O=C(NCC#CBr)C(=O)NCc1ccccc1C(=O)NC1(c2ccc3ccccc3c2)CC1 [Example 163] | > 7.00 | > 6.00
55 | O=C(NCC#Cc1cscn1)C(=O)NCc1ccccc1C(=O)NC1(c2ccc3ccccc3c2)CC1 [Example 165] | > 7.00 | 5.00 to 6.00
56 | COC(=O)/C=C/CNC(=O)C(=O)NCc1cc(F)c(F)cc1C(=O)N[C@H](C)c1cccc2ccccc12 [Example 362] | > 7.00 | > 6.00
57 | Cc1cccnc1C#CCNC(=O)C(=O)NCc1ccccc1C(=O)NC1(c2cc(F)cc(-c3cn(C)nc3C)c2)CC1 [Example 260] | > 7.00 | > 6.00
58 | N#C/C=C/CNC(=O)C(=O)NCc1ccccc1C(=O)NC1(c2ccc3c4c(cccc24)CC3)CC1 [Example 438] | > 7.00 | > 6.00

Reference: US20240327334A1, “Covalent Inhibitors As Antiviral Agents” (Enanta Pharmaceuticals, Inc., priority 2022, published 2024)
